The subject of test [1] is S. epidermidis ATCC 12228. Description: Planktonic susceptibility (MIC/MBC), 96-well broth microdilution. The class given is cell-based, Staphylococcus epidermidis. The note with it: Staphylococcus epidermidis; for MBC: ATCC12228; for MIC: ATCC12228, planktonic, overnight 37°C in MHB. The method, then: (§1) All bacterial strains subjected to testing had been stored at −70°C prior to the experiment. The experiment commenced by streaking small amounts of the frozen bacterial samples onto Muller-Hinton agar (MHA) culture medium (BD Bacto, Oxoid, Basingstoke, UK Cat# X296B) and allowing for overnight incubation. Bacteria were re-cultured on MHA plates as required to confirm colony morphology and lack of contamination. Strains tested were P. aeruginosa ATCC 27853, E. coli ATCC 25922, Staphylococcus aureus ATCC 25923, MRSA ATCC 33591, S. epidermidis ATCC 12228, Klebsiella pneumoniae ATCC, P. mirabilis ATCC 35659, and 10 clinical isolates of MRSA from Foothills Hospital, Calgary, Canada. To prepare for susceptibility testing, a protocol modified from Lemire et al was used ([28]). MHB was swab-inoculated from MHA colonies and shake-incubated until turbid. Dilution of the broth with 0.9% saline was performed as necessary to match a 1.0 McFarland standard.
(§2) MIC and MBC assessments were conducted on all bacterial strains using 96-well microtiter plates. To prepare the wells for bacteria, serial dilutions of the antibacterial agents were carried out along the rows of two microtiter plates. The antibacterials were 2-fold diluted with Mueller-Hinton broth (MHB) in each column, reaching a volume of 75 µL. The 1.0 McFarland standard was diluted 15-fold in MHB, and 75 µL of inoculum was added to the wells treated with antibacterials, resulting in a total volume of 150 µL. The microtiter plates were covered and then shake-incubated overnight at 150 rpm and 37°C. MIC was determined based on visible bacterial growth. In cases of antibacterial opacity or ambiguous results, streaking of well cultures on MHA, overnight incubation, and subsequent comparison with controls were performed. MBC was determined by transferring 3 µL of culture from all MIC microtiter plate wells to 147 µL of Mueller-Hinton broth in fresh plates. These plates were shake-incubated overnight at 150 rpm and 37°C, and bacterial growth was visually inspected.
In general terms: Dilution methods test growth across graded concentrations, often in twofold steps.

The test system of test [2] is E. coli ATCC 25922. The test is described as above. The note with it: Escherichia coli. The test is classed as cell-based. Here is the method: as §1, §2
Test [3] relates to Klebsiella pneumoniae ATCC. Described as above. The note with it: K. pneumonia; for MIC: planktonic, overnight 37°C in MHB. The class given is cell-based. The method, then:
as §1, §2

Test [4] deals with Staphylococcus aureus ATCC 25923. The test is described as above. The test is classed as cell-based. As to conditions: Staphylococcus aureus, ATCC25923, S. aureus; for MIC: planktonic, overnight 37°C in MHB. The method, then:
as §1, §2

The subject of test [5] is P. aeruginosa ATCC 27853. The test is described as above. The test is classed as cell-based. The note with it: Pseudomonas aeruginosa. Here is the method: as §1, §2
Test [6] relates to P. mirabilis ATCC 35659. The description is as above. The class given is cell-based. As to conditions: Proteus mirabilis; for MBC: ATCC35659; for MIC: ATCC35659, planktonic, overnight 37°C in MHB. The method, then:
as §1, §2

Test [7] deals with MRSA ATCC 33591. Described as above. The class given is cell-based, methicillin-resistant S. aureus. As to conditions: Staphylococcus aureus, MRSA reference strain; for MIC: planktonic, overnight 37°C in MHB. The method, then: as §1
as §2, with “In cases of antibacterial opacity or ambiguous results, streaking of well cultures on MHA, overnight incubation, and subsequent comparison with controls were performed.” left out

For test [8], the system named is 10 clinical isolates of MRSA from Foothills Hospital, Calgary. Description: Planktonic susceptibility (MIC/MBC) of MRSA clinical isolates. The class given is cell-based, methicillin-resistant S. aureus. The note with it: Staphylococcus aureus. The method, then:
as §1
as §2, with “In cases of antibacterial opacity or ambiguous results, streaking of well cultures on MHA, overnight incubation, and subsequent comparison with controls were performed.” left out

MBC and MIC data for three compounds are collected here from publication PMC11237694, “Novel pentafluorosulfanyl-containing triclocarban analogs selectively kill Gram-positive bacteria” (Microbiology Spectrum, 2024).

≈ marks a conversion by molar mass, not a printed value.

Take `O=C(O)c1cn(C2CC2)c2cc(N3CCNCC3)c(F)cc2c1=O` [Cip, Ciprofloxacin, reference compound]: the MBC in test [1] is 1200 µM (≈ 398 µg/mL); in test [2] (ATCC25922), 2 µM (≈ 0.663 µg/mL); in test [3], 500 µM (≈ 166 µg/mL); in test [4] it was 80 µM (≈ 26.5 µg/mL); in test [5] (ATCC27853), 2400 µM (≈ 795 µg/mL); in test [6] it was 800 µM (≈ 265 µg/mL). The MIC in test [1] was 1200 µM (≈ 398 µg/mL); in test [2] (ATCC25922, planktonic, overnight 37°C in MHB) it was 2 µM (≈ 0.663 µg/mL); in test [3], 10 µM (≈ 3.31 µg/mL); in test [4], 80 µM (≈ 26.5 µg/mL); in test [5] (ATCC27853, planktonic, overnight 37°C in MHB), 61 µM (≈ 20.2 µg/mL); in test [6], 20 µM (≈ 6.63 µg/mL).

Take `O=C(Nc1ccc(Cl)c(C(F)(F)F)c1)Nc1ccc(Cl)c(C(F)(F)F)c1` [EBP-34, 1,3-di(4-chloro-3-(trifluoromethyl)phenyl)urea]: the MBC in test [1] is 10 µM (≈ 4.17 µg/mL); in test [7], 61 µM (≈ 25.4 µg/mL); in test [8] (MRSA #1 clinical isolate), below 2 µM; in test [8] (MRSA #2 clinical isolate), below 2 µM; in test [8] (MRSA #3 clinical isolate) it was 80 µM (≈ 33.4 µg/mL); in test [8] (MRSA #4 clinical isolate), below 2 µM. In addition, the MBC was 10 µM (≈ 4.17 µg/mL) in test [8] (MRSA #5 clinical isolate); 10 µM (≈ 4.17 µg/mL) in test [8] (MRSA #6 clinical isolate); 10 µM (≈ 4.17 µg/mL) in test [8] (MRSA #7 clinical isolate); 5 µM (≈ 2.09 µg/mL) in test [8] (MRSA #8 clinical isolate); below 2 µM in test [8] (MRSA #9 clinical isolate); 10 µM (≈ 4.17 µg/mL) in test [8] (MRSA #10 clinical isolate). The MBC in test [3] is above 5000 µM; in test [4], 10 µM (≈ 4.17 µg/mL); in test [6] it was 625 µM (≈ 261 µg/mL). For the same compound, the MIC in test [1] was 0.2 µM (≈ 0.0834 µg/mL); in test [7], 1.9 µM (≈ 0.793 µg/mL); in test [8] (MRSA #1 clinical isolate) it was 600 µM (≈ 250 µg/mL); in test [8] (MRSA #2 clinical isolate), below 2 µM; in test [8] (MRSA #3 clinical isolate), 80 µM (≈ 33.4 µg/mL); in test [8] (MRSA #4 clinical isolate), below 2 µM. The MIC in test [8] (MRSA #5 clinical isolate) was 10 µM (≈ 4.17 µg/mL); in test [8] (MRSA #6 clinical isolate) it was 10 µM (≈ 4.17 µg/mL); in test [8] (MRSA #7 clinical isolate), below 2 µM; in test [8] (MRSA #8 clinical isolate), 5 µM (≈ 2.09 µg/mL); in test [8] (MRSA #9 clinical isolate) it was below 2 µM; in test [8] (MRSA #10 clinical isolate) it was below 2 µM. The MIC in test [3] is above 5000 µM; in test [4], 3.8 µM (≈ 1.59 µg/mL); in test [6], 625 µM (≈ 261 µg/mL).

Turning to `O=C(Nc1ccc(Cl)c(C(F)(F)F)c1)Nc1cc(S(F)(F)(F)(F)F)ccc1Cl` [EBP-37, 3-(4-chloro-3-(trifluoromethyl)phenyl)-1-(2-chloro-5-pentafluoro-λ^6-sulfanyl)urea], the MBC in test [1] is 40 µM (≈ 19 µg/mL); in test [7], 40 µM (≈ 19 µg/mL); in test [8] (MRSA #1 clinical isolate), 1200 µM (≈ 570 µg/mL); in test [8] (MRSA #2 clinical isolate), 10 µM (≈ 4.75 µg/mL); in test [8] (MRSA #3 clinical isolate) it was 600 µM (≈ 285 µg/mL); in test [8] (MRSA #4 clinical isolate) it was 10 µM (≈ 4.75 µg/mL). The MBC in test [8] (MRSA #5 clinical isolate) was 10 µM (≈ 4.75 µg/mL); in test [8] (MRSA #6 clinical isolate) it was below 2 µM; in test [8] (MRSA #7 clinical isolate), 40 µM (≈ 19 µg/mL); in test [8] (MRSA #8 clinical isolate) it was 10 µM (≈ 4.75 µg/mL); in test [8] (MRSA #9 clinical isolate) it was 10 µM (≈ 4.75 µg/mL); in test [8] (MRSA #10 clinical isolate), 10 µM (≈ 4.75 µg/mL). Further, the MBC in test [3] is above 5000 µM; in test [4] it was 4900 µM (≈ 2330 µg/mL); in test [6], 625 µM (≈ 297 µg/mL). Further, the MIC is 8 µM (≈ 3.8 µg/mL) in test [1]; 8 µM (≈ 3.8 µg/mL) in test [7]; 10 µM (≈ 4.75 µg/mL) in test [8] (MRSA #1 clinical isolate); below 2 µM in test [8] (MRSA #2 clinical isolate); 80 µM (≈ 38 µg/mL) in test [8] (MRSA #3 clinical isolate); below 2 µM in test [8] (MRSA #4 clinical isolate). Moreover, the MIC is 10 µM (≈ 4.75 µg/mL) in test [8] (MRSA #5 clinical isolate); below 2 µM in test [8] (MRSA #6 clinical isolate); 10 µM (≈ 4.75 µg/mL) in test [8] (MRSA #7 clinical isolate); below 2 µM in test [8] (MRSA #8 clinical isolate); 5 µM (≈ 2.38 µg/mL) in test [8] (MRSA #9 clinical isolate); below 2 µM in test [8] (MRSA #10 clinical isolate). Moreover, the results for the MIC in test [3], in test [4] and in test [6] were above 5000 µM, 1.2 µM (≈ 0.57 µg/mL) and 625 µM (≈ 297 µg/mL), respectively.

As a reminder, the MBC is the smallest concentration meeting the test's criterion for killing. A higher MBC goes with weaker bactericidal potency. The MIC is the lowest concentration that inhibits growth of the organism. Higher therefore signals a need for much substance.
